# Source: publication PMC8041284, “Tunable Methacrylamides for Covalent Ligand Directed Release Chemistry” (Journal of the American Chemical Society, 2021)
# Like-named read-outs stand apart in the source and are kept apart here.
# How the values were obtained:
# [1] = target: T1, BTK (Homo sapiens, UniProt Q06187); conditions: 10 µM, inhibitor
# [2] = target: T1, BTK; assay: biochemical; conditions: read-out: BTK inhibition (%), 0.75 uM BTK, […] probe 3l, 15 min preincubation
# [3] = 0.75 uM BTK, […] probe 3l, 15 min preincubation
# [4] = 0.75 uM BTK, […] probe 3l, 15 min preincubation, BTK inhibition (%)
# T1 sequence (Q06187 402-655 limits assumed): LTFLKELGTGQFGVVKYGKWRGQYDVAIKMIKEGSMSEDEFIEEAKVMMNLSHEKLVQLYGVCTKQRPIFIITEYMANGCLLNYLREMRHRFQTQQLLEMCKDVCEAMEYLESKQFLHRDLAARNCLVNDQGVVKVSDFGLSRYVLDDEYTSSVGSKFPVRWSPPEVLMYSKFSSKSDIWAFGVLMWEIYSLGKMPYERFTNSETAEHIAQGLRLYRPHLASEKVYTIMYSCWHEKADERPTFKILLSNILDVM
Structure (SMILES),inhibition at 10 µM [2] [%],other results
CN1CCN(C(=O)C2C3CCC(O3)C2C(=O)O)CC1 (centres unmarked) [PCM-0215448],,"BTK inhibition (%) [1, 3]: -11.1%"
CCC(=O)NS(=O)(=O)c1ccc(-c2c(-c3ccccc3)noc2C)cc1 [PCM-0214825],,"BTK inhibition (%) [1, 4]: 5.5%"
C[C@H](O)[C@H](O)[C@@H](O)[C@@H](O)C=O [PCM-0214991],,"BTK inhibition (%) [1, 4]: -11.7%"
O=C1O[C@H]([C@@H](O)CO)C(O)=C1O [PCM-0085940],,"BTK inhibition (%) [1, 4]: 5.4%"
O=C(O[C@H]1CN2CCC1CC2)N1CCc2ccccc2[C@@H]1c1ccccc1 [PCM-0095538],,"BTK inhibition (%) [1, 3]: -27.2%"
C/C=C(/C)C(=O)O[C@H]1[C@@H](OC(C)=O)c2c(ccc3ccc(=O)oc23)OC1(C)C [PCM-0216298],,"BTK inhibition (%) [1, 4]: 10%"
COc1ccc(C=O)cc1O [PCM-0215127],,BTK inhibition (%) [1]: -7.8%
O=C1O[C@H]([C@@H](O)CO)C(O)=C1O [PCM-0215215],,"BTK inhibition (%) [1, 4]: -6.8%"
Cc1ccccc1C(=O)Nc1ccc(C(=O)N2CCCC(N(C)C)c3ccccc32)cc1 (centres unmarked) [PCM-0095419],,"BTK inhibition (%) [1, 4]: -13.6%"
O=P1(N(CCCl)CCCl)NCCCO1 (centres unmarked) [PCM-0064707],,"BTK inhibition (%) [1, 3]: -19.3%"
CN[C@H]1C[C@@H](N)[C@H](O)[C@@H](O[C@@H]2O[C@H](CO)[C@H](O)[C@@H]3OC4(O[C@H]23)O[C@H]([C@@H](N)CO)[C@H](O)[C@H](O)[C@H]4O)[C@@H]1O (some centres unmarked) [PCM-0095389],,"BTK inhibition (%) [1, 3]: 0%"
CCOC(=O)C1=C[C@@H](OC(CC)CC)[C@H](NC(C)=O)[C@@H](N)C1 [PCM-0095436],,"BTK inhibition (%) [1, 3]: -10.2%"
C1CCN2C[C@H]3C[C@H](CN4CCCC[C@@H]34)[C@H]2C1 [PCM-0216422],,"BTK inhibition (%) [1, 3]: 6.9%"
Nc1nc2[nH]cc(CCc3ccc(C(=O)N[C@@H](CCC(=O)O)C(=O)O)cc3)c2c(=O)[nH]1 [PCM-0090283],,"BTK inhibition (%) [1, 4]: 2.6%"
C[C@H]1CC[C@@H]2N(C1)C[C@H]1[C@@H]3C[C@H]4[C@@H](CC(=O)[C@H]5C[C@@H](O)CC[C@@]54C)[C@@H]3CC[C@H]1[C@]2(C)O [PCM-0216485],,BTK inhibition (%) [1]: -13.9%
CC(=O)OC1CN2CCC1CC2 (centres unmarked) [PCM-0215275],,"BTK inhibition (%) [1, 3]: 4.7%"
O=C(O)O [PCM-0216036],,"BTK inhibition (%) [1, 4]: 4.3%"
C=C1[C@H](CO)[C@@H](O)C[C@@H]1n1cnc2c(=O)[nH]c(N)nc21 [PCM-0216093],,"BTK inhibition (%) [1, 4]: 11%"
CC(C)[C@]12O[C@H]1[C@@H]1O[C@]13[C@]1(O[C@H]1C[C@H]1C4=C(CC[C@@]13C)C(=O)OC4)[C@@H]2O [PCM-0214731],,"BTK inhibition (%) [1, 3]: 6.2%"
CC(=O)Oc1ccccc1C(=O)O [PCM-0064532],,"BTK inhibition (%) [1, 4]: 7.6%"

Structure (SMILES),inhibition at 10 µM [2] [%],other results
O=C(NC(=O)c1c(F)cccc1F)Nc1ccc(OC(F)(F)C(F)OC(F)(F)F)c(Cl)c1 (centres unmarked) [PCM-0216580],,"BTK inhibition (%) [1, 3]: 22.4%"
Cc1cc(NS(=O)(=O)c2ccc(N)cc2)no1 [PCM-0085795],,"BTK inhibition (%) [1, 4]: -3.1%"
Cc1cc(NS(=O)(=O)c2ccc(N)cc2)no1 [PCM-0215124],,"BTK inhibition (%) [1, 4]: 7%"
CC(=O)Oc1ccccc1C(=O)O [PCM-0214911],,"BTK inhibition (%) [1, 4]: 1.6%"
C[C@@H]1O[C@@H]1P(=O)(O)O [PCM-0216062],,"BTK inhibition (%) [1, 4]: -39.1%"
COC(=O)Nc1nc2ccccc2[nH]1 [PCM-0214885],,"BTK inhibition (%) [1, 3]: -9.3%"
COP(=O)(OC)SCn1c(=O)oc2cc(Cl)cnc21 [PCM-0215999],,BTK inhibition (%) [1]: -2.3%
C[C@H]1CC[C@]2(NC1)O[C@H]1C[C@H]3[C@@H]4CC[C@H]5C[C@@H](O)CC[C@]5(C)[C@H]4CC[C@]3(C)[C@H]1[C@@H]2C [PCM-0216325],,"BTK inhibition (%) [1, 3]: 13.9%"
O=C(Nc1ccc2c(O)cc(S(=O)(=O)O)cc2c1)Nc1ccc2c(O)cc(S(=O)(=O)O)cc2c1 [PCM-0215497],,"BTK inhibition (%) [1, 4]: 21.6%"
CC1=C2C(=O)[C@H]3[C@@H](CC=C4C[C@@H](O)CC[C@@]43C)[C@@H]2CC[C@]12O[C@@H]1C[C@H](C)CN[C@H]1[C@H]2C [PCM-0214856],,BTK inhibition (%) [1]: -12.5%
COC(=O)C1=CCCN(C)C1 [PCM-0003961],,BTK inhibition (%) [1]: -10.1%
CN1[C@@H]2CC[C@H]1CC(OC(=O)[C@H](CO)c1ccccc1)C2 (some centres unmarked) [PCM-0095561],,"BTK inhibition (%) [1, 3]: -14.8%"
C=C[C@]12CN(C)[C@@H]3[C@H]4CO[C@H](C[C@H]41)[C@]1(C(=O)Nc4ccccc41)[C@@H]32 [PCM-0216528],,BTK inhibition (%) [1]: -0.8%
CCN(CC)CCOC(=O)C(O)(c1ccccc1)c1ccccc1 [PCM-0214873],,"BTK inhibition (%) [1, 3]: 8.6%"
O=C(O)c1cc(C(=O)O)c(C(=O)N(Cc2cccc(Oc3ccccc3)c2)[C@H]2CCCc3ccccc32)cc1C(=O)O [PCM-0215841],13.1,
CCOC(=O)N1CCC(CN(Cc2ccc(Cl)cc2)Cc2ccc([N+](=O)[O-])s2)C1 (centres unmarked) [PCM-0215989],20.1,
CC(C)c1c2cc(-c3ccnc(NC4CCC(NC5CCOCC5)CC4)n3)ccc2nn1C (centres unmarked) [PCM-0215782],3.4,
C[C@H](NC(=O)Cc1cc(F)cc(F)c1)C(=O)N[C@H](C(=O)OC(C)(C)C)c1ccccc1 [PCM-0095251],-29,
COCC(=O)Nc1cc(Sc2ccccc2)ccc1N=C(NC(=O)OC)NC(=O)OC [PCM-0216017],11.6,
CC(=O)N[C@@H](CS)C(=O)O [PCM-0064400],5.5,

Structure (SMILES),inhibition at 10 µM [2] [%],other results
C#Cc1cccc(Nc2ncnc3cc(OCCOC)c(OCCO)cc23)c1 [PCM-0095242],31,
C[C@@H]1CC[C@]2(C(=O)O[C@@H]3O[C@H](CO)[C@@H](O)[C@H](O)[C@H]3O)CC[C@]3(C)C(=CC[C@@H]4[C@@]5(C)CC[C@H](O)[C@@](C)(CO)[C@@H]5CC[C@]43C)[C@@H]2[C@]1(C)O [PCM-0216572],-2.3,
OC[C@@H](O)[C@@H](O)[C@H](O)[C@H](O)CO [PCM-0094876],-17.1,
CC(=O)O[C@@H]1C[C@H](O)[C@@]23CO[C@@H](O)[C@]1(C)[C@@H]2C[C@@H](O)[C@]1(C)[C@@H]3C(=O)[C@H](OC(C)=O)[C@@]2(C)[C@H](c3ccoc3)C[C@H]3O[C@]321 [PCM-0216537],-15.4,
CNC1CCC(N(Cc2cccc(-c3ccncc3)c2)C(=O)c2sc3ccccc3c2Cl)CC1 (centres unmarked) [PCM-0215509],-8.5,
COc1cc2c(cc1OC)[C@H]1[C@@H](C)c3ccc(OC)c(OC)c3CN1CC2 [PCM-0216500],-27,
CNCC[C@H](Oc1cccc2ccccc12)c1cccs1 [PCM-0090599],-1.6,
CO[C@H]1C[C@H](O[C@@H]2/C(C)=C/C[C@@H]3C[C@@H](C[C@]4(CC[C@H](C)[C@@H](C5CCCCC5)O4)O3)OC(=O)[C@@H]3C=C(C)/C(=N/O)[C@H]4OC/C(=C\C=C\[C@@H]2C)[C@]43O)O[C@@H](C)[C@@H]1O [PCM-0216231],41.7,
CC1(C)[C@H]2CC[C@]1(C)[C@H](O)C2 [PCM-0215078],-20.2,
O=C[C@H](O)[C@@H](O)[C@H](O)[C@H](O)CO[C@H]1O[C@H](CO[C@H]2O[C@H](CO)[C@H](O)[C@H](O)[C@H]2O)[C@H](O)[C@H](O)[C@H]1O [PCM-0216378],3.9,
CC(=O)C1=C(O)C=C2Oc3c(C(C)=O)c(O)c(C)c(O)c3[C@@]2(C)C1=O [PCM-0094808],17.1,
CNCC(=O)O [PCM-0215710],-11.1,
COc1cc(/C=C/C(=O)O[C@H]2CC[C@]34C[C@]35CC[C@]3(C)[C@@H]([C@H](C)CCC=C(C)C)CC[C@@]3(C)[C@@H]5CC[C@H]4C2(C)C)ccc1O [PCM-0214964],16.3,
Nc1cc(C(F)(F)F)c(-c2cc(N3CCOCC3)nc(N3CCOCC3)n2)cn1 [PCM-0095286],-4.1,
Cc1cn([C@H]2C=C[C@@H](CO)O2)c(=O)[nH]c1=O [PCM-0065071],2.3,
CC(C)CCC[C@@H](C)[C@H]1CC[C@H]2[C@@H]3CC[C@H]4C[C@@H](O)CC[C@]4(C)[C@H]3CC[C@]12C [PCM-0216033],-9.4,
C#C[C@]1(O)CC[C@H]2[C@@H]3CCC4=CCCC[C@@H]4[C@H]3C(=C)C[C@@]21CC [PCM-0214824],27.2,
CNC(=O)[C@H](Cc1ccccc1)NC(=O)[C@H](CC(C)C)[C@H](CSc1cccs1)C(=O)NO [PCM-0215194],11.6,

# The next lines start with results.
inhibition at 10 µM [2] [%],Structure (SMILES),other results
-9,Cc1c(Nc2ncccc2C(=O)O)cccc1C(F)(F)F [PCM-0086423],
-25.5,COC(=O)N(C)c1c(N)nc(-c2nn(Cc3ccccc3F)c3ncccc23)nc1N [PCM-0215574],
-17.9,O=S(=O)(c1cccc2cnccc12)N1CCCNCC1 [PCM-0090675],
15.9,COC1CCC(N2C(=O)CNc3ncc(-c4ccc(C(C)(C)O)nc4)nc32)CC1 (centres unmarked) [PCM-0215601],
17,NC1=NC(=O)/C(=C/c2ccc(O)cc2)S1 [PCM-0215596],
-1.7,C[C@@H]1O[C@@H](O[C@H]2[C@H](Oc3c(-c4ccc(O)cc4)oc4cc(O)cc(O)c4c3=O)O[C@H](CO)[C@@H](O)[C@@H]2O)[C@H](O)[C@H](O)[C@H]1O [PCM-0216179],
-7.8,COc1ccc(-n2nc(C(N)=O)c3c2C(=O)N(c2ccc(N4CCCCC4=O)cc2)CC3)cc1 [PCM-0095150],
19.3,C/C=C/c1cc(OC)c2c(c1)C(C)C(c1ccc(O)c(OC)c1)O2 (centres unmarked) [PCM-0216391],
73.8,CNC(=O)c1cc(Oc2ccc(NC(=O)Nc3ccc(Cl)c(C(F)(F)F)c3)cc2)ccn1 [PCM-0094958],
5.4,COc1cnc(NS(=O)(=O)c2ccc(N)cc2)nc1 [PCM-0086492],
76.4,Cc1cc(N=Nc2ccc(S(=O)(=O)Nc3ccccn3)cc2)c(N)cc1O [PCM-0215414],
77.2,CN1CCN(C(=O)c2ccc(-c3ccc4c(C=O)c(O)ccc4c3)s2)CC1 [PCM-0215885],
-12.4,Cc1ccc(S(=O)(=O)/C=C/C#N)cc1 [PCM-0065564],
15.2,CCOCc1nc2c(N)nc3ccccc3c2n1CC(C)(C)O [PCM-0215576],
2.3,NNC(=O)c1ccncc1 [PCM-0085769],
46.2,CCc1ccc(/C=C2/SC(=S)NC2=O)cc1 [PCM-0064568],
